Assays:
[1] = In-vivo absorption test in rats, oral gavage, lamotrigine in blood serum by HPLC-UV; parameters: species or system Rats Sprague-Dawley; conditions: for Plasma concentration of lamotrigine in rats: rats (N = 5), oral gavage, 10 mg/kg as lamotrigine
Description: Rats historically have been used in safety evaluation and PK screening studies and are recommended by appropriate regulatory agencies.
Dose preparation; dose is prepared and suspended in 1 ml of 5% PEG 400 with 95% methylcellulose solution (weight percentage); methylcellulose solution is prepared by dissolving 0.5% methylcellulose in water (weight percentage).
The machine was operated by Total Chrome Workstation (Perkin Elmer Instruments LLC).

[2] = cited from earlier work
[3] = Sprague-Dawley, rat, plasma, po, 10 mg/kg

Compound	Plasma concentration of lamotrigine in rats ([1]; time 0 hrs) [ng/mL]	Plasma concentration of lamotrigine in rats ([1]; time 0.5 hrs) [ng/mL]	Plasma concentration of lamotrigine in rats ([1]; time 1 hrs) [ng/mL]	Plasma concentration of lamotrigine in rats ([1]; time 2 hrs) [ng/mL]	Plasma concentration of lamotrigine in rats ([1]; time 3 hrs) [ng/mL]	Plasma concentration of lamotrigine in rats ([1]; time 4 hrs) [ng/mL]	Plasma concentration of lamotrigine in rats ([1]; time 8 hrs) [ng/mL]	Plasma concentration of lamotrigine in rats ([1]; time 12 hrs) [ng/mL]	Plasma concentration of lamotrigine in rats ([1]; time 24 hrs) [ng/mL]	concentration at 0 h [1, 3] [ng/mL]	concentration at 0.5 h [1, 3] [ng/mL]	concentration at 1 h [1, 3] [ng/mL]	concentration at 2 h [1, 3] [ng/mL]	concentration at 3 h [1, 3] [ng/mL]	concentration at 4 h [1, 3] [ng/mL]	concentration at 8 h [1, 3] [ng/mL]	concentration at 12 h [1, 3] [ng/mL]	concentration at 24 h [1, 3] [ng/mL]	extent of absorption, solid versus solution ([2]; drug delivered as a solid or as a solution)	extent of absorption by site of delivery ([2]; drug delivered to any point in the gastrointestinal tract between the stomach and the ascending colon)
NC(=O)c1cccnc1.Nc1nnc(-c2cccc(Cl)c2Cl)c(N)n1 [Cocrystal 2]	0	1184	1561	1605	1757	1609	1823	1840	971.8											
Nc1nnc(-c2cccc(Cl)c2Cl)c(N)n1 [Lamotrigine, 6-(2,3-dichlorophenyl)-1,2,4-triazine-3,5-diamine]										0	1590	2240	2370	2420	2480	2680	2860	2130	similar	consistent
